Publication PMC6271077, “Synthesis, Anticancer and Antibacterial Activity of Salinomycin N-Benzyl Amides” (Molecules, 2014)
Converted amounts (≈) assume the structure as drawn.

These compounds were tested on M. tuberculosis isoniazid-resistant strain (spec. 210) (assay: Tuberculostatic activity, test-tube dilution). Settings: Mycobacterium tuberculosis, read-out: MIC M. tuberculosis Isoniazid-Resistant Strain.
Assay type: cell-based
With `CCC(C(=O)NCc1ccccc1F)C1CCC(C)C(C(C)C(O)C(C)C(=O)C(CC)C2OC3(C=CC(O)C4(CCC(C)(C5CCC(O)(CC)C(C)O5)O4)O3)C(C)CC2C)O1` (centres unmarked) [F-o] the MIC was 100 µg/mL (≈ 117 µM).
With `CC[C@H](C(=O)NCc1cccc([N+](=O)[O-])c1)C1CC[C@H](C)C([C@@H](C)[C@H](O)[C@H](C)C(=O)[C@H](CC)C2O[C@]3(C=C[C@@H](O)C4(CC[C@@](C)(C5CC[C@](O)(CC)[C@H](C)O5)O4)O3)[C@H](C)C[C@@H]2C)O1` (some centres unmarked) [NO2-m] the MIC was > 100 µg/mL.
With `NNC(=O)c1ccncc1` [Isoniazid, isoniazid, reference compound] the MIC was 6.25 µg/mL (≈ 45.6 µM).
For `CCC(C(=O)NCc1cccc(F)c1)C1CCC(C)C(C(C)C(O)C(C)C(=O)C(CC)C2OC3(C=CC(O)C4(CCC(C)(C5CCC(O)(CC)C(C)O5)O4)O3)C(C)CC2C)O1` (centres unmarked) [F-m], the MIC was > 100 µg/mL.
For `CC[C@H](C(=O)NCc1cccc(Cl)c1)C1CC[C@H](C)C([C@@H](C)[C@H](O)[C@H](C)C(=O)[C@H](CC)C2O[C@]3(C=C[C@@H](O)C4(CC[C@@](C)(C5CC[C@](O)(CC)[C@H](C)O5)O4)O3)[C@H](C)C[C@@H]2C)O1` (some centres unmarked) [Cl-m], the MIC was > 100 µg/mL.
With `CC[C@H](C(=O)NCc1ccc(F)cc1)C1CC[C@H](C)C([C@@H](C)[C@H](O)[C@H](C)C(=O)[C@H](CC)C2O[C@]3(C=C[C@@H](O)C4(CC[C@@](C)(C5CC[C@](O)(CC)[C@H](C)O5)O4)O3)[C@H](C)C[C@@H]2C)O1` (some centres unmarked) [F-p] the MIC was 50 µg/mL (≈ 58.3 µM).
Compound `CCC(C(=O)NCc1ccccc1[N+](=O)[O-])C1CCC(C)C(C(C)C(O)C(C)C(=O)C(CC)C2OC3(C=CC(O)C4(CCC(C)(C5CCC(O)(CC)C(C)O5)O4)O3)C(C)CC2C)O1` (centres unmarked) [NO2-o] has an MIC of 100 µg/mL (≈ 113 µM).
`CC[C@@H](C(=O)[C@@H](C)[C@@H](O)[C@H](C)[C@@H]1O[C@@H]([C@@H](CC)C(=O)O)CC[C@@H]1C)[C@H]1O[C@]2(C=C[C@@H](O)[C@]3(CC[C@@](C)([C@H]4CC[C@](O)(CC)[C@H](C)O4)O3)O2)[C@H](C)C[C@@H]1C` [SAL, Salinomycin] was tested, and the MIC was 50 µg/mL (≈ 66.6 µM).
`CC[C@H](C(=O)NCc1ccc(Br)cc1)C1CC[C@H](C)C([C@@H](C)[C@H](O)[C@H](C)C(=O)[C@H](CC)C2O[C@]3(C=C[C@@H](O)C4(CC[C@@](C)(C5CC[C@](O)(CC)[C@H](C)O5)O4)O3)[C@H](C)C[C@@H]2C)O1` (some centres unmarked) [Br-p] was tested, and the MIC was 100 µg/mL (≈ 109 µM).
With `CC[C@H](C(=O)NCc1ccc([N+](=O)[O-])cc1)C1CC[C@H](C)C([C@@H](C)[C@H](O)[C@H](C)C(=O)[C@H](CC)C2O[C@]3(C=C[C@@H](O)C4(CC[C@@](C)(C5CC[C@](O)(CC)[C@H](C)O5)O4)O3)[C@H](C)C[C@@H]2C)O1` (some centres unmarked) [NO2-p] the MIC was 50 µg/mL (≈ 56.5 µM).
For `CC[C@H](C(=O)NCc1cccc(Br)c1)C1CC[C@H](C)C([C@@H](C)[C@H](O)[C@H](C)C(=O)[C@H](CC)C2O[C@]3(C=C[C@@H](O)C4(CC[C@@](C)(C5CC[C@](O)(CC)[C@H](C)O5)O4)O3)[C@H](C)C[C@@H]2C)O1` (some centres unmarked) [Br-m], the MIC was > 100 µg/mL.
For `CC[C@H](C(=O)NCc1ccccc1Br)C1CC[C@H](C)C([C@@H](C)[C@H](O)[C@H](C)C(=O)[C@H](CC)C2O[C@]3(C=C[C@@H](O)C4(CC[C@@](C)(C5CC[C@](O)(CC)[C@H](C)O5)O4)O3)[C@H](C)C[C@@H]2C)O1` (some centres unmarked) [Br-o], the MIC was > 100 µg/mL.
`CC[C@H](C(=O)NCc1ccc(Cl)cc1)C1CC[C@H](C)C([C@@H](C)[C@H](O)[C@H](C)C(=O)[C@H](CC)C2O[C@]3(C=C[C@@H](O)C4(CC[C@@](C)(C5CC[C@](O)(CC)[C@H](C)O5)O4)O3)[C@H](C)C[C@@H]2C)O1` (some centres unmarked) [Cl-p, p-chlorobenzyl amide of salinomycin] was tested, and the MIC was > 100 µg/mL.
In the case of `CC[C@H](C(=O)NCc1ccccc1Cl)C1CC[C@H](C)C([C@@H](C)[C@H](O)[C@H](C)C(=O)[C@H](CC)C2O[C@]3(C=C[C@@H](O)C4(CC[C@@](C)(C5CC[C@](O)(CC)[C@H](C)O5)O4)O3)[C@H](C)C[C@@H]2C)O1` (some centres unmarked) [Cl-o], the MIC is reported as > 100 µg/mL.
